The values that follow come from US9980976B2, “Use of REDD1 inhibitors to dissociate therapeutic and adverse atrophogenic effects of glucocorticoid receptor agonists” (Northwestern University, priority 2015, dated 2018).

One assay deals with LC3. The assay can be described thus: Autophagy in mouse epidermis (LC3-I to LC3-II conversion, Beclin-1). Type of assay: in vivo. The conditions noted are these: FA-treated mouse skin. Here is the method: In accordance, we observed in FA-treated skin the conversion of light chain 3 (LC3) from its free form (LC3-I) to a membrane-bound state (LC3-II), a key step that initiates autophagy in mammalian cells (Klionsky et al, 2012). LC3-I to LC3-II conversion reached its maximum 8 h after FA treatment and paralleled with the increase of another autophagy marker Beclin-1, highest REDD1 expression and strongest repression of mTOR activity (FIGS. 2C, D).
The whole-cell protein extracts were prepared using RIPA buffer with protease and phosphatase inhibitor cocktails (Thermo Scientific, Thermo Fisher Scientific Inc., Waltham, Mass., USA), resolved by SDS-PAGE on 4-20% gels and transferred to Odyssey nitrocellulose membranes (LI-COR Biosciences, Lincoln, Neb., USA). Membranes were blocked with Odyssey Blocking Buffer and incubated with primary antibodies overnight at 4° C., followed by IRDye® secondary antibodies (LI-COR Biosciences). LI-COR Odyssey Imager was used for the band visualization. Equal loading and adequate transfer to the membranes were verified by staining with Ponceau S (Sigma-Aldrich) and with anti-GAPDH (Sigma-Aldrich) antibody. We used Abs against: REDD1 (Proteintech Group, Inc., Chicago, Ill.), LC3B, phospho-rpS6Ser240/244, phospho-4E-BP1Thr37/46, phospho-GRSer211 (Cell Signaling Technology, Inc.), and GR (H-300 or M-20, Santa Cruz Biotechnology, Inc.).

In assay [1] the test system is glucocorticoid-responsive genes in murine epidermis. As to the kind of experiment: Genome-wide expression profiling of murine epidermis (microarray, Q-PCR validation). Type of assay: in vivo, mouse. As to conditions: FA. How it is done: To investigate the global role of REDD1 in GR signaling, we performed genome-wide expression profiling of the epidermis of REDD1 and wild-type mice treated with vehicle (control) or FA using Illumina mouse whole-genome gene array (GEO Submission GSE59151). Gene expression was measured 24 h post-FA application, when both TA and TR are usually fully developed (Wu et al, 2004). Differential expression was identified based on the adjusted P-value threshold of 0.05.
RNA samples were checked for quality and integrity with the Agilent 2100 bioanalyzer and used for microarray analysis. RNA amplification, labeling, and hybridization with the Mouse Whole-Genome Gene Expression BeadChips MouseRef-8 v2.0 (Illumina) were performed at the Genomics Core Facility at the Center for Genetic Medicine at Northwestern University according to Illumina protocols.
Microarray processing was performed using the Limma package (Smyth, 2005), using the neqc function to perform background subtraction using the negative control probes, and quantile normalization using both positive and negative control probes. Differentially expressed probes were identified using the linear model implemented in Limma, applying an adjusted P-value threshold of 0.05. Q-PCR and microarray based gene expression values were compared using linear Pearson correlation.
Gene ontology analysis was performed using the DAVID Bioinformatics resource tool (Huang et al, 2009a,b), submitting differentially expressed probes from each experiment, against the probe background of MouseRef 8. DAVID performs a hypergeometric test to identify overrepresented GO terms in a list of differentially expressed probes. Results are presented for categories with greater than or equal to threefold enrichment and P=0.01.

Another assay concerns FKBP51 and GILZ. As to the kind of experiment: Q-PCR analysis of GR target genes FKBP51 and GILZ in HaCaT and CEM cells. Type of assay: cell-based, human. The conditions noted are these: FA 1 uM 24 h. Here is the method:
FIG. 13. Rapamycin inhibits GR transactivation. A, B. Q-PCR analysis of FKBP51 and GILZ expression in HaCaT (A) and CEM (B) cells. Cells were pretreated with solvent or Rapa (1 uM)×6 hrs and treated with solvent (Control) or FA (1 uM) for 24 h. A,B. Q-PCR results were normalized to the expression of the housekeeping Rp127 gene, and presented as fold of change compared to control cells. The means+/−SD calculated for three individual RNA samples/condition. a—Statistically significant difference (P<0.05) compared to control; b—Statistically significant differences (P<0.05) compared to FA treatment. C. Inhibitory effect of rapamycin on GRE.Luciferase reporter. […] The means+SD were calculated for three individual wells/group in one representative experiment (out of three experiments). a—Statistically significant differences (P<0.05) in comparison to vehicle treatment; b—Statistically significant differences (P<0.05) in comparison to FA treatment.
Total RNA from murine epidermis, whole human skin, and cell cultures was isolated with RiboPure kit (Ambion, Life Technologies, Grand Island, N.Y., USA). […] The gene expression was assessed using semi-quantitative two-step RT-PCR and quantitative Q-PCR. […] For semi-quantitative PCRs, Taq DNA polymerase (Promega) was used, and PCR products were separated on 1.5% agarose gel and visualized using automated imaging system (Bio-Rad, Hercules, Calif., USA). […]

A further assay relates to GR. As to the kind of experiment: GR phosphorylation at Ser211 (Western blot) in HaCaT and CEM cells. Type of assay: cell-based, human. As to conditions: 1 uM FA. Here is the method: FIG. 15. Rapamycin inhibits GR nuclear translocation and phosphorylation. A. GR nuclear translocation in HaCaT cells was determined by immunofluorescence as described in Materials and Methods. Cells on coverslips were pretreated with solvent (Control) or Rapamycin (1 uM×6 h) and treated with 1 uM FA for indicated time. B. GR nuclear translocation in CEM cells was determined by Western blot analysis of nuclear protein extracts. Membranes were probed with anti-HDAC-1 antibodies to verify equal protein loading and transfer. C, D. GR phosphorylation in HaCaT (C) and CEM (D) cells was determined by Western blot analysis of whole cell lysates. Membranes were probed with anti-GAPDH antibodies to verify equal protein loading and transfer.
The whole-cell protein extracts were prepared using RIPA buffer with protease and phosphatase inhibitor cocktails (Thermo Scientific, Thermo Fisher Scientific Inc., Waltham, Mass., USA), resolved by SDS-PAGE on 4-20% gels and transferred to Odyssey nitrocellulose membranes (LI-COR Biosciences, Lincoln, Neb., USA). Membranes were blocked with Odyssey Blocking Buffer and incubated with primary antibodies overnight at 4° C., followed by IRDye® secondary antibodies (LI-COR Biosciences). LI-COR Odyssey Imager was used for the band visualization. […]
For orientation: A western blot detects proteins with antibodies after separation by electrophoresis.

Take `CC1(C)O[C@@H]2C[C@H]3[C@@H]4C[C@H](F)C5=CC(=O)C=C[C@]5(C)[C@@]4(F)[C@@H](O)C[C@]3(C)[C@]2(C(=O)CO)O1` [FA, fluocinolone acetonide]: the “time of maximum LC3-I to LC3-II conversion after treatment” value in the assay with LC3 is 8 h. In addition, the “gene categories up-regulated (GO analysis)” value in assay [1] (REDD1 KO keratinocytes) was “up-regulated genes related to autophagy, endosomes, and PI3K signaling”. Also, the “Cd74 and H2-Ab1 expression (Q-PCR array validation)” value in assay [1] (wild-type and REDD1 KO epidermis) is on record as “similarly down-regulated”. The “gene categories inhibited (GO analysis)” value in assay [1] (wild-type but not REDD1 KO skin) is reported as “inhibited genes related to DNA replication”. Besides, the “FKBP51 and GILZ expression” value in the assay with FKBP51 and GILZ is on record as “strongly activated”. Also, in the assay on GR, the “GR phosphorylation at Ser211” value is on record as “induced quick GR phosphorylation”.
